Data: ChEMBL document CHEMBL3994622, “Design and synthesis of new RAF kinase-inhibiting antiproliferative quinoline derivatives. Part 2: Diarylurea derivatives” (Eur J Med Chem, 2017)

Legend:
Format in all cases: functional
DU-145 = assay: Growth inhibition of human DU145 cells incubated for 48 hrs by sulforhodamine B assay; details: DU-145, 48 h
A549 = assay: Growth inhibition of human A549/ATCC cells incubated for 48 hrs by sulforhodamine B assay; details: A549, 48 h
OVCAR-5 = assay: Growth inhibition of human OVCAR5 cells incubated for 48 hrs by sulforhodamine B assay; details: OVCAR-5, 48 h
SK-OV-3 = assay: Growth inhibition of human SKOV3 cells incubated for 48 hrs by sulforhodamine B assay; details: SK-OV-3, 48 h
CAKI-1 = assay: Growth inhibition of human Caki1 cells incubated for 48 hrs by sulforhodamine B assay; details: CAKI-1, 48 h
U-251 = assay: Growth inhibition of human U251 cells incubated for 48 hrs by sulforhodamine B assay; details: U-251, 48 h
SF-268 = assay: Growth inhibition of human SF268 cells incubated for 48 hrs by sulforhodamine B assay; details: SF-268, 48 h
UACC-257 = assay: Growth inhibition of human UACC257 cells incubated for 48 hrs by sulforhodamine B assay; details: UACC-257, 48 h
Malme-3M = assay: Growth inhibition of human MALME-3M cells incubated for 48 hrs by sulforhodamine B assay
RPMI-8226 [1] = assay: Growth inhibition of human RPMI8226 cells incubated for 48 hrs by sulforhodamine B assay; details: RPMI-8226, 48 h
M14 = assay: Growth inhibition of human M14 cells assessed as cell growth at 0.003 uM incubated for 48 hrs by sulforhodamine B assay relative to control; details: M14, 48 h, read-out: Activity
OVCAR-3 = assay: Growth inhibition of human OVCAR3 cells incubated for 48 hrs by sulforhodamine B assay; details: OVCAR-3, 48 h
MDA-MB-231 [2] = assay: Growth inhibition of human MDA-MB-231 cells incubated for 48 hrs by sulforhodamine B assay; details: MDA-MB-231, 48 h
MCF7 = assay: Growth inhibition of human MCF7 cells incubated for 48 hrs by sulforhodamine B assay; details: MCF7, 48 h
MDA-MB-231 [3] = assay: Growth inhibition of human MDA-MB-231 cells assessed as cell growth at 0.003 uM incubated for 48 hrs by sulforhodamine B assay relative to control; details: MDA-MB-231, 48 h, read-out: Activity
HCT-116 = assay: Growth inhibition of human HCT116 cells incubated for 48 hrs by sulforhodamine B assay; details: HCT-116, 48 h
NCI/ADR-RES = assay: Growth inhibition of human NCI/ADR-RES cells incubated for 48 hrs by sulforhodamine B assay
Hs-578T = assay: Growth inhibition of human Hs 578T cells incubated for 48 hrs by sulforhodamine B assay
SK-MEL-28 = assay: Growth inhibition of human SK-MEL-28 cells incubated for 48 hrs by sulforhodamine B assay; details: SK-MEL-28, 48 h
RPMI-8226 [4] = assay: Growth inhibition of human RPMI8226 cells assessed as cell growth at 30 uM incubated for 48 hrs by sulforhodamine B assay relative to control; details: RPMI-8226, 48 h, read-out: Activity
SF-295 = assay: Growth inhibition of human SF295 cells incubated for 48 hrs by sulforhodamine B assay; details: SF-295, 48 h
SK-MEL-5 = assay: Growth inhibition of human SK-MEL-5 cells incubated for 48 hrs by sulforhodamine B assay; details: SK-MEL-5, 48 h
SNB-19 = assay: Growth inhibition of human SNB19 cells incubated for 48 hrs by sulforhodamine B assay; details: SNB-19, 48 h
[5] = read-out: LC50 (the source's name)

Which GI50 (DU-145) does the source give for `Cc1nc2cc(O)c(O)cc2cc1Oc1ccc(NC(=O)Nc2ccc(Cl)c(Cl)c2)cc1` here?
Its GI50 is 7.26 µM.

What about the TGI (DU-145) of the same molecule?
The TGI was 25.2 µM.

And the CC50 (DU-145; [5])?
The CC50 was over 32.5 µM.

What about the GI50 (A549) of the same molecule?
Its GI50 is 8.99 µM.

What about the TGI (A549) of the same molecule?
The TGI was 26.2 µM.

What about the CC50 (A549; [5]) of the same molecule?
The CC50 was over 32.5 µM.

And the GI50 (OVCAR-5)?
The GI50 was 11.6 µM.

What about the TGI (OVCAR-5) of the same molecule?
The TGI was 29.3 µM.

What about the CC50 (OVCAR-5; [5]) of the same molecule?
Its CC50 is over 32.5 µM.

And the GI50 (SK-OV-3)?
The GI50 was 11.7 µM.

What about the TGI (SK-OV-3) of the same molecule?
Its TGI is over 32.5 µM.

And the CC50 (SK-OV-3; [5])?
The CC50 was over 32.5 µM.

And the GI50 (CAKI-1)?
Its GI50 is 4.96 µM.

What about the TGI (CAKI-1) of the same molecule?
The TGI was 30 µM.

What about the CC50 (CAKI-1; [5]) of the same molecule?
Its CC50 is over 32.5 µM.

And the GI50 (U-251)?
The GI50 was 6.58 µM.

And the TGI (U-251)?
Its TGI is over 32.5 µM.

What about the CC50 (U-251; [5]) of the same molecule?
Its CC50 is over 32.5 µM.

What about the GI50 (SF-268) of the same molecule?
Its GI50 is 8.45 µM.

What about the LC50 (50% lethal concentration) (SF-268) of the same molecule?
The LC50 (50% lethal concentration) was over 32.5 µM.

What about the TGI (SF-268) of the same molecule?
Its TGI is over 32.5 µM.

And the GI50 (UACC-257)?
Its GI50 is 7.27 µM.

What about the TGI (UACC-257) of the same molecule?
Its TGI is 21.3 µM.

What about the CC50 (UACC-257; [5]) of the same molecule?
Its CC50 is over 32.5 µM.

And the GI50 (Malme-3M)?
The GI50 was 8.6 µM.

And the TGI (Malme-3M)?
Its TGI is 26 µM.

What about the CC50 (Malme-3M; [5]) of the same molecule?
Its CC50 is over 32.5 µM.

And the GI50 (RPMI-8226 [1])?
The GI50 was 7.62 µM.

What about the LC50 (lethal concentration, 50% cell kill) (RPMI-8226 [1]) of the same molecule?
The LC50 (lethal concentration, 50% cell kill) was over 32.5 µM.

And the TGI (RPMI-8226 [1])?
The TGI was 20.7 µM.

And the growth at 0.003 µM (M14)?
Its growth at 0.003 µM is 96%.

What about the GI50 (OVCAR-3) of the same molecule?
The GI50 was 8.52 µM.

What about the TGI (OVCAR-3) of the same molecule?
Its TGI is 19.9 µM.

What about the CC50 (OVCAR-3; [5]) of the same molecule?
Its CC50 is over 32.5 µM.

And the GI50 (MDA-MB-231 [2])?
Its GI50 is 2.49 µM.

And the TGI (MDA-MB-231 [2])?
Its TGI is over 32.5 µM.

And the CC50 (MDA-MB-231 [2]; [5])?
The CC50 was over 32.5 µM.

What about the GI50 (MCF7) of the same molecule?
The GI50 was 8.7 µM.

What about the TGI (MCF7) of the same molecule?
The TGI was over 32.5 µM.

What about the CC50 (MCF7; [5]) of the same molecule?
Its CC50 is over 32.5 µM.

And the growth at 0.003 µM (MDA-MB-231 [3])?
Its growth at 0.003 µM is 110%.

What about the GI50 (HCT-116) of the same molecule?
The GI50 was 2.24 µM.

And the LC50 (50% lethal concentration) (HCT-116)?
The LC50 (50% lethal concentration) was over 32.5 µM.

And the TGI (HCT-116)?
Its TGI is 13.6 µM.

What about the GI50 (NCI/ADR-RES) of the same molecule?
Its GI50 is 8.74 µM.

What about the TGI (NCI/ADR-RES) of the same molecule?
The TGI was over 32.5 µM.

And the CC50 (NCI/ADR-RES; [5])?
The CC50 was over 32.5 µM.

And the GI50 (Hs-578T)?
Its GI50 is 12.8 µM.

What about the TGI (Hs-578T) of the same molecule?
The TGI was over 32.5 µM.

And the CC50 (Hs-578T; [5])?
The CC50 was over 32.5 µM.

And the GI50 (SK-MEL-28)?
Its GI50 is 9 µM.

And the TGI (SK-MEL-28)?
Its TGI is 30.1 µM.

And the CC50 (SK-MEL-28; [5])?
Its CC50 is over 32.5 µM.

What about the growth at 30 µM (RPMI-8226 [4]) of the same molecule?
The growth at 30 µM was -22%.

What about the GI50 (SF-295) of the same molecule?
The GI50 was 11.4 µM.

And the TGI (SF-295)?
Its TGI is over 32.5 µM.

And the CC50 (SF-295; [5])?
The CC50 was over 32.5 µM.

And the GI50 (SK-MEL-5)?
The GI50 was 5.94 µM.

And the TGI (SK-MEL-5)?
Its TGI is 14.2 µM.

And the CC50 (SK-MEL-5; [5])?
Its CC50 is over 32.5 µM.

What about the GI50 (SNB-19) of the same molecule?
The GI50 was 10.1 µM.

And the TGI (SNB-19)?
Its TGI is over 32.5 µM.

What about the CC50 (SNB-19; [5]) of the same molecule?
Its CC50 is over 32.5 µM.
